In patent US12492195B2, “Preparation method for and crystal form of 3-aryloxy-3-five-membered heteroaryl-propylamine compound” (Zhangzhou Pien Tze Huang Pharmaceutical Co., Ltd., priority 2020, dated 2025):

Experiments:
[1] = tested on: SD rats; experiment: SNL model in rats, mechanical hyperalgesia test; assay type: in vivo; details: 10 mg/kg by gavage, 1 hour after administration
Protocol: Male SPF grade SD rats, weighed 150-180 g, were selected. Aseptic operation during surgery was performed. The animals were anesthetized with sodium pentobarbital (50 mg/kg, intraperitoneal injection). The surgical area of animal waist was shaved and the skin was disinfected three times with iodophor and 70% ethanol. After the skin was dried, the operation was started. Surgical knife was used to make a longitudinal incision at the back of the sacrum of the animal waist to expose the left paraspinal muscles, and distractor was used to separate muscle tissue to expose the spine. The left spinal nerves L5 and L6 were separated and ligated with a 6-0 silk thread, and the wound was sutured. […]
The animals were weighed to calculate the dosage. […] During the test, rapid paw withdrawal of animal was recorded as pain response. When the test fiber was removed from animal skin, the paw withdrawal of animal was also recorded as pain response. If animal moved or walked, the pain response was not recorded and the test was repeated. […]
Mechanical hyperalgesia was expressed as paw withdrawal threshold (PWT) in rat behavioral test, which was calculated with the following formula: 50% response threshold (g)=(10^(Xf+k))/10,000; • Xf=the final test fiber value used in the test; • k=table value; • =mean difference

[2] = molecular target: T1, TRPV4 (Homo sapiens, UniProt Q9HBA0); experiment: Manual patch clamp detection on TRPV4 channel; assay type: cell-based; details: 10.00 μM, HEK293, GSK1016790A-induced current
T1 construct: expressed in transfected cells
Protocol: (§1) TRPV4 cells were cultured in a cell culture dish with a diameter of 35 mm, placed in an incubator in 5% CO2 at 37° C., and passaged at a ratio of 1:5 every 48 hours. The formula of medium was 90% DMEM (Invitrogen), 10% fetal bovine serum (Gibco), 2 mM L-glutamine, 50 μg/mL Hygromycin B (Invitrogen) and 5 μg/mL Blasticidine HCl (Invitrogen). Before electrophysiological patch clamp experiment, the cell culture medium was replaced with medium containing 1 μg/mL doxycycline for at least 16 hours to induce the expression of TRPV4.
On the day of the experiment, the cell culture medium was aspirated, the cell were rinsed once with extracellular fluid, and then 0.25% Trypsin-EDTA (Invitrogen) solution was added, and digested at room temperature for 1-2 minutes. The digestion solution was aspirated, the cell were resuspended with extracellular fluid, and transferred to the experimental dish for electrophysiological recording for further experiment. […]
(§2) HEK293 cells stably expressing TRP channels, the corresponding agonist-induced channel current was recorded by whole-cell patch clamp technique at room temperature. […] Clamp voltages and data recording were controlled and recorded by a computer using pClamp 11 software with the sampling frequency of 10 kHz and the filtering frequency of 2 kHz. […] After the current was evoked for more than 40 s and no attenuation was determined, the dosing process started. […]

[3] = molecular target: T2, TRPM8 (Homo sapiens, UniProt Q7Z2W7); experiment: Manual patch clamp detection on TRPM8 channel; assay type: cell-based
T2 construct: expressed in transfected cells
Protocol: as §1, with “TRPM8” for “TRPV4”, “TRPM8 expression.” for “the expression of TRPV4.”
On the day of the experiment, the cell culture medium was aspirated, the cell were rinsed once with extracellular fluid, and then 0.25% Trypsin-EDTA (Invitrogen) solution was added, and digested at room temperature for 1-2 minutes. The digestion solution was aspirated, the cell were resuspended with extracellular fluid, and transferred to the experimental dish for electrophysiological recording for further experiment.
Preparation of menthol: 100.00 mM of DMSO stock solution of menthol was added to the extracellular solution, diluting 1000-fold to 100.00 μM of menthol solution.
Preparation of AMTB: 5 μL of DMSO stock solution (20.00 mM) of AMTB was added to 4995 μL of menthol solution (100.00 uM), diluting 1000-fold to obtain the final concentration of 20.00 μM AMTB to be tested.
Preparation of IC-1: 20.00 mM or 10.00 mM of stock solution of IC-1 was taken and added to the agonist solution of the corresponding channel, diluting 1000 or 2000-fold to the final concentration of 10.00 μM of […] solution to be tested.
as §2

T2 sequence (Q7Z2W7 whole entry, species assumed): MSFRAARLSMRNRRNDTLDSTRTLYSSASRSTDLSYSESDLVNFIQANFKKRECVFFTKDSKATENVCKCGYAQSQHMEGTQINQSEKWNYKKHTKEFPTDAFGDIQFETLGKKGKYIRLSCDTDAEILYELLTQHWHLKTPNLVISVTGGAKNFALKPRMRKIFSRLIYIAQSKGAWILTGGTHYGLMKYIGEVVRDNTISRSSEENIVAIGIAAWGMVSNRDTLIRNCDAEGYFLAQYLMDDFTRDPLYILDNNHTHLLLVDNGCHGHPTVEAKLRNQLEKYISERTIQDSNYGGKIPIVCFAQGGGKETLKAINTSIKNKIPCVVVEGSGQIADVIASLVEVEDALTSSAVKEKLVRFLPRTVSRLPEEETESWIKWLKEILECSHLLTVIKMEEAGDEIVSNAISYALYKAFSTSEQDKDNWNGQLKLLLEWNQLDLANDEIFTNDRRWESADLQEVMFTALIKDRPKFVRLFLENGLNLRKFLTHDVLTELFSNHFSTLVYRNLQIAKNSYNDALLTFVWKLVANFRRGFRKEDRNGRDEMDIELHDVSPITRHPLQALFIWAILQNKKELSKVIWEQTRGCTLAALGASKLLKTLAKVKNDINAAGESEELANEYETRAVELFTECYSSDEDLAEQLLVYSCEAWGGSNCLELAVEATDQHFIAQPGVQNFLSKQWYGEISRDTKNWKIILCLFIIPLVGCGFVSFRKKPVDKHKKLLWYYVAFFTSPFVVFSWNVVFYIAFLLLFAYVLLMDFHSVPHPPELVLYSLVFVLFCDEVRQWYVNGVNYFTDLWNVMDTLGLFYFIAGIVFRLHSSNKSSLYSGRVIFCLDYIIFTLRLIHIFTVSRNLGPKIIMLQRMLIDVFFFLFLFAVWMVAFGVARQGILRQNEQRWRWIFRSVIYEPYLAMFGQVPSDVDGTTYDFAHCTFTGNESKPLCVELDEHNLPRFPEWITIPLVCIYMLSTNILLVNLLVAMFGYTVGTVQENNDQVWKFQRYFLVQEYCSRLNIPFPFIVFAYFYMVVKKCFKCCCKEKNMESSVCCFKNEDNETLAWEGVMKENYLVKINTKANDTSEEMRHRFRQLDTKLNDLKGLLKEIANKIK
T1 sequence (Q9HBA0 whole entry, species assumed): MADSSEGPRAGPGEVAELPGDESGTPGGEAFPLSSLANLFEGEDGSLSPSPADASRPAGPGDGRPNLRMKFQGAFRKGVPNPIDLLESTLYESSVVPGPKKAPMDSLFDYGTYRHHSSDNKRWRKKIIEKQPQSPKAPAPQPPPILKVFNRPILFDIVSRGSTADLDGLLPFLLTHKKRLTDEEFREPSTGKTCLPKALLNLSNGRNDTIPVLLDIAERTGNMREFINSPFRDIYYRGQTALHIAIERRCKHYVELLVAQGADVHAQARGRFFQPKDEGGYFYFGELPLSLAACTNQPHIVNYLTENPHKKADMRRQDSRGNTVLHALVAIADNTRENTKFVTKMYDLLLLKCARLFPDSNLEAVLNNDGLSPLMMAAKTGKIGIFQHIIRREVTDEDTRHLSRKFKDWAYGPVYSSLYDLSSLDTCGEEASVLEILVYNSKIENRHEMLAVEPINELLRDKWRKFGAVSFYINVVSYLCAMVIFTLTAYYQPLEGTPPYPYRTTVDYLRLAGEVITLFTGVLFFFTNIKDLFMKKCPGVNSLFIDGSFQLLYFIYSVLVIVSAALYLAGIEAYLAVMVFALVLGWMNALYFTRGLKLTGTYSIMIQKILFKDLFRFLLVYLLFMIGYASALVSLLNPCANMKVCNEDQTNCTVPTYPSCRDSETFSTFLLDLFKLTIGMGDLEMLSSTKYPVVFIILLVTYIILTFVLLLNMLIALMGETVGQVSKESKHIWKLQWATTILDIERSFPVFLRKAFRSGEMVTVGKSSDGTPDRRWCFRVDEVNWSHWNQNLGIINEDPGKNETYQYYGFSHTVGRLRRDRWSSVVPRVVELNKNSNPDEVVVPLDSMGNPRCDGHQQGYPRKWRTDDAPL

## CNCC[C@H](Oc1cccc2ccoc12)c1cccs1 [IC-1, (S)-3-(Benzofuran-7-yloxy)-N-methyl-3-(thiophen-2-yl)propan-1-amine]
[1]
  PWT: 7.869 ± 2.846 g
[2]
  inhibition at 10 µM: 4.68%
[3]; 10.00 μM, HEK293, menthol-induced current
  inhibition at 10 µM: 41.1%
[3]; read-out: IC50 of the compound to TRPM8
  IC50: > 10 µM
